These results are taken from ChEMBL document CHEMBL1130301, “Constrained -alanine based GpIIb/IIIa antagonists” (Bioorg Med Chem Lett, 1997).

Molecules are shown by their SMILES. Where a SMILES comes first, the peptide text is derived from it. A value given as a limit tells only on which side of the number the result lay.

Chain of Integrin alpha-IIb/beta-3 (P05106 27-788 limits assumed): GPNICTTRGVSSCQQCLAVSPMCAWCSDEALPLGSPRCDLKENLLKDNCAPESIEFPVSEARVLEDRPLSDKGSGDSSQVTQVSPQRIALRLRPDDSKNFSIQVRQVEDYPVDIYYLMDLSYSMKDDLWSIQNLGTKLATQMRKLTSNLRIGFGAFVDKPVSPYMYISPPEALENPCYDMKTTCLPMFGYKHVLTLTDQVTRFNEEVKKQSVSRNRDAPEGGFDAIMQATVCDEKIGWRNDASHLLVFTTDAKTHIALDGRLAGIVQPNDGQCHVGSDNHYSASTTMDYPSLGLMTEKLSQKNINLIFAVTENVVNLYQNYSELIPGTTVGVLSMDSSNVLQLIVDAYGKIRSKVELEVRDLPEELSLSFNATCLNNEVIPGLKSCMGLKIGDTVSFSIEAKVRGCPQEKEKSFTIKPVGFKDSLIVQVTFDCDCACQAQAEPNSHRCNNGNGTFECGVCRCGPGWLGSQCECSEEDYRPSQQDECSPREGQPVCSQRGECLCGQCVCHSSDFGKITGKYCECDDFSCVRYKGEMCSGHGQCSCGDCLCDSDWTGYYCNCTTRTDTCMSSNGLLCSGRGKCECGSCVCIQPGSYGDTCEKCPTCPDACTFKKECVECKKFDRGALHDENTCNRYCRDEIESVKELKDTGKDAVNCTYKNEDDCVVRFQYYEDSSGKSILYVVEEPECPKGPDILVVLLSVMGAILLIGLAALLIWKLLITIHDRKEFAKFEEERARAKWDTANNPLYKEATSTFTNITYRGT
Chain of Integrin alpha-IIb/beta-3 (P08514 32-887 limits assumed): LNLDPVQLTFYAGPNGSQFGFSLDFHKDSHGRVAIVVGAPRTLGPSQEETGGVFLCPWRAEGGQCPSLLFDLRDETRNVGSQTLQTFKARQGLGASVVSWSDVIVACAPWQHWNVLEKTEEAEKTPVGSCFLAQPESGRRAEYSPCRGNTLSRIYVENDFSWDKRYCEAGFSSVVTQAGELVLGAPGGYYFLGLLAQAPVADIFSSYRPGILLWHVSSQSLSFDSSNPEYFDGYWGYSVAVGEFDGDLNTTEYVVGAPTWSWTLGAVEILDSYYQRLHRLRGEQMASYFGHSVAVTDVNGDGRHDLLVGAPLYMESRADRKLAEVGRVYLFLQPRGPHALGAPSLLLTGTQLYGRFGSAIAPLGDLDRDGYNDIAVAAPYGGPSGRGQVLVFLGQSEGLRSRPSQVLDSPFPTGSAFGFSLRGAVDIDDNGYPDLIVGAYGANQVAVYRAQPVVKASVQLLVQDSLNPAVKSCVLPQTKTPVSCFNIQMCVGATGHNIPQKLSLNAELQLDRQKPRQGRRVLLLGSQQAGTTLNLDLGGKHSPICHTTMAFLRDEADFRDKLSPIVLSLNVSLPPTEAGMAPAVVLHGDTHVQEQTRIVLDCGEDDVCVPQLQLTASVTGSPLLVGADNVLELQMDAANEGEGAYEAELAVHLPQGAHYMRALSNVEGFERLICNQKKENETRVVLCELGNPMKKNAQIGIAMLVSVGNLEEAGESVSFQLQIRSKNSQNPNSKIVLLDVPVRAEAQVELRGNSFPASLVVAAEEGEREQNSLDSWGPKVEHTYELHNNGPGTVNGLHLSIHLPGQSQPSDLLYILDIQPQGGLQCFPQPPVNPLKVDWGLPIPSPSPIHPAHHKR
Chain of Integrin alpha-IIb/beta-3 (P08514 891-1039 limits assumed): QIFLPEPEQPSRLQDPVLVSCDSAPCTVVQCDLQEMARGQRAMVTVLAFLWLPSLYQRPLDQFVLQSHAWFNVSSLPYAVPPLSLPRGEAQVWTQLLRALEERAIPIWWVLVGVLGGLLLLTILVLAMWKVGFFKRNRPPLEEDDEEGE

The test concerns the target Integrin alpha-IIb/beta-3 (Homo sapiens, UniProt P05106+P08514). The test is described as follows: Inhibition of fibrinogen binding to activated human platelets. Type of test: functional.
As for `CC(C)[C@H](NC(=O)[C@H](CC(=O)O)NC(=O)C[C@H]1CCCN1C(=O)/C=C/c1ccc(NC(=N)N)cc1)C(=O)O`, the half-inhibitory concentration (IC50) (as a rule, the concentration that inhibits the measured activity by half) is 26 µM. The value for `CC(C)[C@H](NC(=O)[C@H](CC(=O)O)NC(=O)C[C@@H]1CCCCN1C(=O)/C=C/c1ccc(NC(=N)N)cc1)C(=O)O` was 0.2 µM; that for `CC(C)[C@H](NC(=O)[C@H](CC(=O)O)NC(=O)CCN(C)C(=O)/C=C/c1ccc(NC(=N)N)cc1)C(=O)O` was 0.2 µM.

Regarding `CC(C)[C@H](NC(=O)[C@H](CC(=O)O)NC(=O)[C@H]1CCN(C(=O)/C=C/c2ccc(NC(=N)N)cc2)C1)C(=O)O`, the IC50 stood at 3 µM. The result for `CC(C)[C@H](NC(=O)[C@H](CC(=O)O)NC(=O)[C@@H]1CCCN(C(=O)/C=C/c2ccc(NC(=N)N)cc2)C1)C(=O)O` reads 0.07 µM. In turn, `CC(C)[C@H](NC(=O)[C@H](CC(=O)O)NC(=O)C[C@@H]1CCCN1C(=O)/C=C/c1ccc(NC(=N)N)cc1)C(=O)O` showed an IC50 of 1.5 µM.

`CC(C)[C@H](NC(=O)[C@H](CC(=O)O)NC(=O)CCCNC(=O)/C=C/c1ccc(NC(=N)N)cc1)C(=O)O`: the IC50 was determined as 70 µM. The result for `CC(C)[C@H](NC(=O)[C@H](CC(=O)O)NC(=O)CCNC(=O)/C=C/c1ccc(NC(=N)N)cc1)C(=O)O` reads 0.24 µM; that for `CC(C)[C@H](NC(=O)[C@H](CC(=O)O)NC(=O)C[C@H]1CCN1C(=O)/C=C/c1ccc(NC(=N)N)cc1)C(=O)O`, 0.11 µM.

On to `CC(C)[C@H](NC(=O)[C@H](CC(=O)O)NC(=O)C[C@H]1CCCCN1C(=O)/C=C/c1ccc(NC(=N)N)cc1)C(=O)O`, for which the IC50 is > 20 µM. Turning to `CCN(CCC(=O)N[C@@H](CC(=O)O)C(=O)N[C@H](C(=O)O)C(C)C)C(=O)/C=C/c1ccc(NC(=N)N)cc1`, the IC50 was found to be 0.22 µM. The result for `CC(C)[C@H](NC(=O)[C@H](CC(=O)O)NC(=O)[C@H]1CCCN(C(=O)/C=C/c2ccc(NC(=N)N)cc2)C1)C(=O)O` reads 0.12 µM; that for `CC(C)[C@H](NC(=O)[C@H](CC(=O)O)NC(=O)C1CN(C(=O)/C=C/c2ccc(NC(=N)N)cc2)C1)C(=O)O`, > 20 µM; that for `CC(C)[C@H](NC(=O)[C@H](CC(=O)O)NC(=O)CNC(=O)/C=C/c1ccc(NC(=N)N)cc1)C(=O)O`, 5 µM.

Compound `CC(C)[C@H](NC(=O)[C@H](CC(=O)O)NC(=O)[C@@H]1CCN(C(=O)/C=C/c2ccc(NC(=N)N)cc2)C1)C(=O)O` returned a 50% inhibitory concentration (IC50) of 0.003 µM. The result for `CC(C)[C@H](NC(=O)[C@H](CC(=O)O)NC(=O)CNC(=O)[C@@H](N)CCCN=C(N)N)C(=O)O` (H-RGDV-OH) reads 6 µM.
